Experimental data published in ChEMBL document CHEMBL4706474, “Tetrahydro-2-naphthyl and 2-Indanyl Triazolopyrimidines Targeting Plasmodium falciparum Dihydroorotate Dehydrogenase Display Potent and Selective Antimalarial Activity” (J Med Chem, 2016).
In brackets after ≈: the same amount, converted by molar mass.

What was measured:
[1] = Cmax in Sprague-Dawley rat at 24.4 mg/kg, po measured over 24 hrs by LC-MS analysis; format: ADME, organism-based; design: route oral, dose 24.4 mg/kg, time >24; settings: in vivo
[2] = Inhibition of N-terminal His6-tagged Plasmodium falciparum DHODH expressed in Escherichia coli BL21 using L-DHO as substrate and CoQ as co-substrate by DCIP dye based spectrophotometric assay
[3] = Inhibition of N-terminal His6-tagged Plasmodium vivax DHODH expressed in Escherichia coli BL21 using L-DHO as substrate and CoQ as co-substrate by DCIP dye based spectrophotometric assay
Plasmodium falciparum [4] = experiment: Antiplasmodial activity against Plasmodium falciparum 3D7 infected in RBC assessed as reduction in parasitemia incubated for 72 hrs by SYBR green dye-based assay; format: functional, organism-based
[5] = Inhibition of N-terminal His6-tagged dog DHODH expressed in Escherichia coli BL21 using L-DHO as substrate and CoQ as co-substrate by DCIP dye based spectrophotometric assay; design: species or system Canis lupus familiaris
[6] = Lipophilicity, logD of the compound at pH 7.4; format: physicochemical; settings: buffer
[7] = Kinetic solubility of compound in phosphate buffer at pH 6.5 measured after 30 mins by HPLC-UV based analysis; format: physicochemical; settings: phosphate buffer, pH 6.5, read-out: Kinetic_solubility
[8] = Protein binding in human plasma assessed as bound fraction by LC-MS analysis based ultracentrifugation assay; format: ADME, cell-free; settings: read-out: PPB (converted)
[9] = Protein binding in rat plasma assessed as bound fraction by LC-MS analysis based ultracentrifugation assay; format: ADME, cell-free; settings: read-out: PPB (converted)
[10] = Protein binding in mouse plasma assessed as bound fraction by LC-MS analysis based ultracentrifugation assay; format: ADME, cell-free; settings: read-out: PPB (converted)
[11] = Intrinsic clearance in rat liver microsomes assessed per mg protein at 1 uM by LC-MS analysis; format: ADME, Microsome
[12] = Intrinsic clearance in mouse liver microsomes at 1 uM by LC-MS analysis; format: ADME, Microsome
[13] = Solubility of compound in 0.1 N HCl measured after 5 to 6 hrs by HPLC-UV based analysis; format: physicochemical; settings: buffer; time 5-6 hrs
Cytochrome P450 3A4 = Cytochrome P450 3A4 (Homo sapiens, UniProt P08684); experiment: Inhibition of CYP3A4 in human liver microsomes using isoform-specific probe substrates in presence of NADPH-generating system by LC-MS analysis; format: ADME
Chain of Cytochrome P450 3A4 (P08684 whole entry, canonical isoform): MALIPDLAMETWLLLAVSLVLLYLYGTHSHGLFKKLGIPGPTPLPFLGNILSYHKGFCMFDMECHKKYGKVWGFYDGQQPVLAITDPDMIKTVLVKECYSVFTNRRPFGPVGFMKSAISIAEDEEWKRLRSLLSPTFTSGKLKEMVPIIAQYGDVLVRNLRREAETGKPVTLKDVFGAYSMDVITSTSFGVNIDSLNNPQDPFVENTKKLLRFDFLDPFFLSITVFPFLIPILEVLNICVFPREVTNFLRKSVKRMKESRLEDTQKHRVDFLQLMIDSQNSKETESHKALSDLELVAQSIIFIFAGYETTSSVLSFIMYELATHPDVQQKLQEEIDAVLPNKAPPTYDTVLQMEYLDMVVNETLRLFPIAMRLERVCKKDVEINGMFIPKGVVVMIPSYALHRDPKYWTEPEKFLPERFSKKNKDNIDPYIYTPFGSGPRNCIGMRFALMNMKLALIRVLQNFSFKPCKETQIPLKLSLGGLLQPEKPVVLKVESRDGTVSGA

[14] = Tmax in Swiss mouse at 20 mg/kg, po administered as single dose via gavage measured over 24 hrs by LC-MS analysis; format: ADME, organism-based; settings: in vivo
[15] = Apparent half-life in Swiss mouse at 20 mg/kg, po administered as single dose via gavage measured over 24 hrs by LC-MS analysis; format: ADME, organism-based; settings: in vivo
[16] = Cmax in Swiss mouse at 20 mg/kg, po administered as single dose via gavage measured over 24 hrs by LC-MS analysis; format: ADME, organism-based; design: route oral, dose 20 mg/kg, time >24; settings: in vivo
[17] = AUC (0 to infinity) in Swiss mouse at 20 mg/kg, po administered as single dose via gavage measured over 24 hrs by LC-MS analysis; format: ADME, organism-based; design: route oral, dose 20 mg/kg, time >24; settings: in vivo
[18] = Unbound Cmax in Swiss mouse at 20 mg/kg, po administered as single dose via gavage measured over 24 hrs by LC-MS analysis; format: ADME, organism-based; settings: in vivo
[19] = Unbound AUC (0 to infinity) in Swiss mouse at 20 mg/kg, po administered as single dose via gavage measured over 24 hrs by LC-MS analysis; format: ADME, organism-based; settings: in vivo
[20] = Elimination half-life in Swiss mouse at 20 mg/kg, po administered as single dose via gavage measured over 24 hrs by LC-MS analysis; format: ADME, organism-based; settings: in vivo, read-out: beta t1/2 (converted)
[21] = Apparent half-life in Sprague-Dawley rat at 2 mg/kg, iv administered as infusion for 10 mins by LC-MS analysis; format: ADME, organism-based; settings: in vivo, read-out: t1/2(app) (converted)
[22] = AUC (0 to infinity) in Sprague-Dawley rat at 2 mg/kg, iv administered as infusion for 10 mins by LC-MS analysis; format: ADME, organism-based; design: route intravenous, dose 2 mg/kg, time 10 min; settings: in vivo
[23] = Unbound clearance in Sprague-Dawley rat at 2 mg/kg, iv administered as infusion for 10 mins by LC-MS analysis; format: ADME, organism-based; settings: in vivo
[24] = Volume of distribution at steady state in Sprague-Dawley rat at 2 mg/kg, iv administered as infusion for 10 mins by LC-MS analysis; format: ADME, organism-based; settings: in vivo
[25] = Unbound volume of distribution at steady state in Sprague-Dawley rat at 2 mg/kg, iv administered as infusion for 10 mins by LC-MS analysis; format: ADME, organism-based; settings: in vivo
[26] = Unbound Cmax in Sprague-Dawley rat at 24.4 mg/kg, po measured over 24 hrs by LC-MS analysis; format: ADME, organism-based; settings: in vivo
[27] = AUC (0 to infinity) in Sprague-Dawley rat at 24.4 mg/kg, po measured over 24 hrs by LC-MS analysis; format: ADME, organism-based; design: route oral, dose 24.4 mg/kg, time >24; settings: in vivo
[28] = Unbound AUC (0 to infinity) in Sprague-Dawley rat at 24.4 mg/kg, po measured over 24 hrs by LC-MS analysis; format: ADME, organism-based; settings: in vivo
[29] = Oral bioavailability in Sprague-Dawley rat at 24.4 mg/kg measured over 24 hrs by LC-MS analysis; format: ADME, organism-based; settings: in vivo
[30] = Solubility of compound in FeSSIF at pH 5.8 measured after 5 to 6 hrs by HPLC-UV based analysis; format: physicochemical; settings: simulated gi fluid, time 5-6 hrs
[31] = Unbound AUC (0 to infinity) in Sprague-Dawley rat at 2 mg/kg, iv by LC-MS analysis; format: ADME, organism-based; settings: in vivo
[32] = Protein binding in Swiss mouse plasma at 20 mg/kg, po administered as single dose via gavage measured over 24 hrs by LC-MS analysis; format: ADME, organism-based; settings: read-out: PPB (converted)
[33] = Protein binding in Sprague-Dawley rat plasma at 2 mg/kg, iv administered as infusion for 10 mins by LC-MS analysis; format: ADME, organism-based; settings: read-out: PPB (converted)
in vivo = settings: Sprague-Dawley, rat, po, 24.4 mg/kg
[34] = Solubility of compound in FaSSIF at pH 6.5 measured after 5 to 6 hrs by HPLC-UV based analysis
[35] = Intrinsic clearance in human pooled liver microsomes assessed per mg protein at 1 uM by LC-MS analysis; format: ADME, Microsome; settings: pooled human liver microsomes
Plasmodium falciparum [36] = experiment: Antiplasmodial activity against Plasmodium falciparum 3D7 infected in po dosed NSG mouse assessed as reduction in parasitemia administered twice daily for 4 consecutive days starting from day 3 post-infection and measured 24 hrs post last dose by flow cytometric analysis; format: functional; settings: 3D7, po, 96 h, time 4 day
Plasmodium falciparum [37] = experiment: Antiplasmodial activity against Plasmodium falciparum 3D7 infected in po dosed NSG mouse assessed as blood AUC level require to show 90% reduction in parasitemia administered once daily for 4 consecutive days starting from day 3 post-infection and measured 24 hrs post last dose by flow cytometric analysis; format: functional, organism-based; settings: time 4.0 day
[38] = Unbound Cmax in Sprague-Dawley rat at 18.8 mg/kg, po by LC-MS analysis; format: ADME, organism-based; settings: in vivo
[39] = Unbound AUC (0 to infinity) in Sprague-Dawley rat at 18.8 mg/kg, po by LC-MS analysis; format: ADME, organism-based; settings: in vivo
[40] = AUC (0 to infinity) in Sprague-Dawley rat at […], iv by LC-MS analysis; format: ADME, organism-based; design: time infinity, route intravenous, dose 2.6 mg/kg; settings: in vivo
[41] = Unbound AUC (0 to infinity) in Sprague-Dawley rat at […], iv by LC-MS analysis; format: ADME, organism-based; settings: in vivo, dose 2.6 mg/kg
[42] = Unbound Clearance in Sprague-Dawley rat at […], iv by LC-MS analysis; format: ADME, organism-based; settings: in vivo, dose 2.6 mg/kg
[43] = Unbound volume of distribution at steady state in Sprague-Dawley rat at […], iv by LC-MS analysis; format: ADME, organism-based; settings: in vivo, dose 2.6 mg/kg
[44] = Unbound Cmax in Swiss mouse at 10 mg/kg, po by LC-MS analysis; format: ADME, organism-based; settings: in vivo
[45] = Unbound AUC (0 to infinity) in Swiss mouse at 10 mg/kg, po by LC-MS analysis; format: ADME, organism-based; settings: in vivo
[46] = Protein binding in Swiss mouse plasma at 10 mg/kg, po administered as single dose via gavage measured over 24 hrs by LC-MS analysis; format: ADME, organism-based; settings: read-out: PPB (converted)
[47] = Protein binding in Sprague-Dawley rat plasma at […], iv administered as infusion for 10 mins by LC-MS analysis; format: ADME, organism-based; settings: dose 2.6 mg/kg, read-out: PPB (converted)

Cc1cc(NC2CCc3cc(Br)ccc3C2)n2nc(C(C)(F)F)nc2n1 (stereo in doubt)
Cmax [1]: 37 µM | IC50 [2]: 4.6 nM | IC50 [3]: 24 nM | EC50 (Plasmodium falciparum [4]; rbc): 2.6 nM | IC50 [5]: > 100000 nM | logD [6]: 4 | solubility kinetic at 0.5 h [7]: 3.1 µg/mL (≈ 7.34 µM) | fraction unbound [8]: 0.01 | fraction unbound [9]: 0.003 | fraction unbound [10]: 0.008 | Intrinsic clearance in rat liver microsomes (uL/min/mg protein) ([11]; microsomes, 1 µM): 11 µL/min | intrinsic clearance [12]: 26 µL/min | solubility [13]: 189 µg/mL (≈ 448 µM) | IC50 (Cytochrome P450 3A4): > 20000 nM | Tmax [14]: 1 h | t1/2(app) [15]: 2.1 h | Cmax [16]: 8.6 µM | AUC [17]: 51 µM·h | fCmax [18]: 0.07 µM | fAUC [19]: 0.41 µM·h | half-life [20]: 2 h | half-life [21]: 6.2 h | AUC(0-inf) [22]: 30 µM·h | CL free [23]: 933 mL/min/kg | Vdss [24]: 1.1 L/kg | fVdss [25]: 367 L/kg | fCmax [26]: 0.11 µM | AUC(0-inf) [27]: 318 µM·h | fAUC [28]: 0.95 µM·h | bioavailability [29]: 86% | solubility [30]: 211 µg/mL (≈ 500 µM) | fAUC [31]: 0.09 µM·h | fraction unbound at 24 h [32]: 0.008 | fraction unbound at 10 min [33]: 0.003 | Tmax at 24 h (in vivo): 2.5 h | solubility [34]: 13 µg/mL (≈ 30.8 µM)

Cc1cc(Nc2ccc(S(F)(F)(F)(F)F)cc2)n2nc(C(C)(F)F)nc2n1 [DSM-265]
EC50 (Plasmodium falciparum [4]; Plasmodium falciparum, 3D7, Erythrocyte, 72 h): 4.3 nM | fraction unbound [9]: 0.023 | fraction unbound [10]: 0.003 | microsomal CLint at 1 µM [35]: 4.3 µL/min/mg | microsomal CLint at 1 µM ([11]; rat liver microsomes, read-out: CLH): 1.8 µL/min/mg | intrinsic clearance [12]: 2.8 µL/min | solubility [13]: 6.8 µg/mL (≈ 16.4 µM) | ED90 (Plasmodium falciparum [36]): 3 mg/kg | AUCED90 (Plasmodium falciparum [37]): 30.8 µM.hr/day | fCmax [38]: 0.09 µM | fAUC [39]: 2.8 µM·h | AUC(0-inf) [40]: 17.4 µM·h | fAUC [41]: 0.4 µM·h | CL free [42]: 263 mL/min/kg | fVdss [43]: 257 L/kg | fCmax [44]: 0.01 µM | fAUC [45]: 0.07 µM·h | fraction unbound at 24 h [46]: 0.003 | fraction unbound at 10 min [47]: 0.023
